Common to all, as to assay: Herbicide injury evaluation of Arabidopsis plants, greenhouse
Common to all, as to type: in vivo

Assay [1] has as its system Wildtype/non-transgenic Arabidopsis thaliana. Conditions: scale 0-100.
Assay [2] deals with transgenic Arabidopsis thaliana, transgene SEQ ID NO 120. Conditions: Table 4, scale 0-100.
For assay [3], the system named is transgenic Arabidopsis thaliana, transgene SEQ ID NO 118. Conditions: scale 0-100.
Assay [4] concerns transgenic Arabidopsis thaliana, transgene SEQ ID NO 117. The settings on record: Table 3, scale 0-100.
For assay [5], the system named is transgenic Arabidopsis thaliana, transgene SEQ ID NO 128. The settings on record: Table 3, scale 0-100.
Assay [6] concerns transgenic Arabidopsis thaliana, transgene SEQ ID NO 121. Conditions: Table 3, scale 0-100.

On to `CCOC(=O)COc1ncccc1Oc1cc(-n2c(=O)cc(C(F)(F)F)n(C)c2=O)c(F)cc1Cl` [S3100, ethyl [3-[2-chloro-4-fluoro-5-(1-methyl-6-trifluoromethyl-2,4-dioxo-1,2,3,4-tetrahydropyrimidin-3-yl)phenoxy]-2-pyridyloxy]acetate], for which the “Herbicide injury evaluation 14 days after herbicide treatment” value (from here on “Herbicide injury evaluation 14 days”) in assay [1] (Table 4, 50 g ai/ha + 1% MSO) came out at 100; in assay [1] (Table 4, 100 g ai/ha + 1% MSO), 100; in assay [1] (Table 4, 200 g ai/ha + 1% MSO), 100; in assay [2] (SEQ ID NO 120 J, 50 g ai/ha + 1% MSO), 75; in assay [2] (SEQ ID NO 120 J, 100 g ai/ha + 1% MSO), 95; in assay [2] (SEQ ID NO 120 J, 200 g ai/ha + 1% MSO), 80. In addition, the “Herbicide injury evaluation 14 days” value worked out at 97 in assay [2] (SEQ ID NO 120 M, 50 g ai/ha + 1% MSO); 85 in assay [2] (SEQ ID NO 120 M, 100 g ai/ha + 1% MSO); 89 in assay [2] (SEQ ID NO 120 M, 200 g ai/ha + 1% MSO); 65 in assay [3] (Table 4, SEQ ID NO 118 Q, 50 g ai/ha + 1% MSO); 65 in assay [3] (Table 4, SEQ ID NO 118 Q, 100 g ai/ha + 1% MSO); 65 in assay [3] (Table 4, SEQ ID NO 118 Q, 200 g ai/ha + 1% MSO). Moreover, the “Herbicide injury evaluation 14 days” value came out at 60 in assay [3] (Table 4, SEQ ID NO 118 R, 50 g ai/ha + 1% MSO); 63 in assay [3] (Table 4, SEQ ID NO 118 R, 100 g ai/ha + 1% MSO); 53 in assay [3] (Table 4, SEQ ID NO 118 R, 200 g ai/ha + 1% MSO).

With `Cc1nn(-c2cc(NS(C)(=O)=O)c(Cl)cc2Cl)c(=O)n1C(F)F` [Sulfentrazone, sulfentrazone], the “Herbicide injury evaluation 14 days” value in assay [1] (Table 3, 280 g ai/ha + 1% MSO) came out at 100; in assay [1] (Table 3, 560 g ai/ha + 1% MSO) it was 100; in assay [1] (Table 3, 1120 g ai/ha + 1% MSO), 100; in assay [4] (SEQ ID NO 117 C, 280 g ai/ha + 1% MSO), 83; in assay [4] (SEQ ID NO 117 C, 560 g ai/ha + 1% MSO) it was 99; in assay [4] (SEQ ID NO 117 C, 1120 g ai/ha + 1% MSO), 98. For the same compound, the “Herbicide injury evaluation 14 days” value in assay [4] (SEQ ID NO 117 I, 280 g ai/ha + 1% MSO) was determined as 89; in assay [4] (SEQ ID NO 117 I, 560 g ai/ha + 1% MSO), 85; in assay [4] (SEQ ID NO 117 I, 1120 g ai/ha + 1% MSO) it was 98; in assay [5] (SEQ ID NO 128 D, 280 g ai/ha + 1% MSO) it was 73; in assay [5] (SEQ ID NO 128 D, 560 g ai/ha + 1% MSO), 83; in assay [5] (SEQ ID NO 128 D, 1120 g ai/ha + 1% MSO), 95. For the same compound, the “Herbicide injury evaluation 14 days” value came out at 70 in assay [5] (SEQ ID NO 128 E, 280 g ai/ha + 1% MSO); 93 in assay [5] (SEQ ID NO 128 E, 560 g ai/ha + 1% MSO); 95 in assay [5] (SEQ ID NO 128 E, 1120 g ai/ha + 1% MSO); 100 in assay [6] (SEQ ID NO 121 G, 280 g ai/ha + 1% MSO); 100 in assay [6] (SEQ ID NO 121 G, 560 g ai/ha + 1% MSO); 100 in assay [6] (SEQ ID NO 121 G, 1120 g ai/ha + 1% MSO). For the same compound, the “Herbicide injury evaluation 14 days” value is reported as 100 in assay [6] (SEQ ID NO 121 H, 280 g ai/ha + 1% MSO); 100 in assay [6] (SEQ ID NO 121 H, 560 g ai/ha + 1% MSO); 100 in assay [6] (SEQ ID NO 121 H, 1120 g ai/ha + 1% MSO); 25 in assay [3] (Table 3, SEQ ID NO 118 Q, 280 g ai/ha + 1% MSO); 40 in assay [3] (Table 3, SEQ ID NO 118 Q, 560 g ai/ha + 1% MSO); 48 in assay [3] (Table 3, SEQ ID NO 118 Q, 1120 g ai/ha + 1% MSO). Moreover, the “Herbicide injury evaluation 14 days” value in assay [3] (Table 3, SEQ ID NO 118 R, 280 g ai/ha + 1% MSO) is on record as 15; in assay [3] (Table 3, SEQ ID NO 118 R, 560 g ai/ha + 1% MSO), 18; in assay [3] (Table 3, SEQ ID NO 118 R, 1120 g ai/ha + 1% MSO), 40.

For the origin of these results see patent publication US11959086B2, “Dual transit peptides for targeting polypeptides” (BASF AGRO B.V., priority 2016, dated 2024).
